Results taken from PubChem BioAssay (NCI).
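Exposure lasted 48 hours, with cells grown in 96-well plates and compounds tested at five concentrations. Here, GI50 denotes the concentration required for 50% inhibition of growth. Definition used: TGI = concentration required for complete inhibition of growth.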

Columns and labels:
Experiment in all cases: NCI anticancer screen, dose series, 48 h
UO-31 renal = system: UO-31 renal
MCF7 breast = system: MCF7 breast
SW-620 colon = system: SW-620 colon
M14 melanoma = system: M14 melanoma
HCC-2998 colon = system: HCC-2998 colon
SN12C renal = system: SN12C renal
ACHN renal = system: ACHN renal
A498 renal = system: A498 renal
SF-539 CNS = system: SF-539 CNS
HL-60(TB) leukemia = system: HL-60(TB) leukemia
SK-MEL-2 melanoma = system: SK-MEL-2 melanoma
MALME-3M melanoma = system: MALME-3M melanoma
PC-3 prostate = system: PC-3 prostate
HT29 colon = system: HT29 colon
CCRF-CEM leukemia = system: CCRF-CEM leukemia
NCI-H226 lung = system: NCI-H226 lung
A549 NSCLC = system: A549 NSCLC
SR leukemia = system: SR leukemia
MOLT-4 leukemia = system: MOLT-4 leukemia
SNB-19 CNS = system: SNB-19 CNS
EKVX NSCLC = system: EKVX NSCLC
RPMI-8226 leukemia = system: RPMI-8226 leukemia
SK-MEL-5 melanoma = system: SK-MEL-5 melanoma
NCI-H522 lung = system: NCI-H522 lung
OVCAR-5 ovarian = system: OVCAR-5 ovarian
UACC-257 melanoma = system: UACC-257 melanoma
HOP-92 NSCLC = system: HOP-92 NSCLC
RXF 393 renal = system: RXF 393 renal
OVCAR-4 ovarian = system: OVCAR-4 ovarian
DU-145 prostate = system: DU-145 prostate
SK-MEL-28 melanoma = system: SK-MEL-28 melanoma
U251 CNS = system: U251 CNS
LOX IMVI melanoma = system: LOX IMVI melanoma
SF-268 CNS = system: SF-268 CNS
NCI-H23 lung = system: NCI-H23 lung
NCI-H460 lung = system: NCI-H460 lung
COLO 205 colon = system: COLO 205 colon
OVCAR-8 ovarian = system: OVCAR-8 ovarian
HOP-62 NSCLC = system: HOP-62 NSCLC
UACC-62 melanoma = system: UACC-62 melanoma
IGROV1 ovarian = system: IGROV1 ovarian
SF-295 CNS = system: SF-295 CNS
NCI/ADR-RES ovarian = system: NCI/ADR-RES ovarian
T-47D breast = system: T-47D breast
CAKI-1 renal = system: CAKI-1 renal
SNB-75 CNS = system: SNB-75 CNS
HCT-116 colon = system: HCT-116 colon
MDA-MB-435 = system: MDA-MB-435
MDA-MB-231 breast = system: MDA-MB-231 breast
KM12 colon = system: KM12 colon
K-562 leukemia = system: K-562 leukemia
TK-10 renal = system: TK-10 renal
HCT-15 colon = system: HCT-15 colon
SK-OV-3 ovarian = system: SK-OV-3 ovarian
786-0 renal = system: 786-0 renal
BT-549 breast = system: BT-549 breast
HS 578T breast = system: HS 578T breast

For Cc1ccc(C)c(COc2cc(NC(=O)c3ccc4c(c3)OCO4)ccc2N(C)S(C)(=O)=O)c1, the GI50 (UO-31 renal) was 348 nM, the TGI (UO-31 renal) was over 100 µM and the GI50 (MCF7 breast) was 71.6 nM. For the same molecule, the TGI (MCF7 breast) was over 100 µM, the GI50 (SW-620 colon) was 77.8 nM and the TGI (SW-620 colon) was over 100 µM. For the same molecule, the GI50 (M14 melanoma) was 65.7 nM, the TGI (M14 melanoma) was 560 nM and the GI50 (HCC-2998 colon) was 132 nM. For the same molecule, the TGI (HCC-2998 colon) was 397 nM, the GI50 (SN12C renal) was 447 nM and the TGI (SN12C renal) was over 100 µM. For the same molecule, the GI50 (ACHN renal) was 420 nM, the TGI (ACHN renal) was over 100 µM and the GI50 (A498 renal) was 122 nM. The TGI (A498 renal) was 853 nM, the GI50 (SF-539 CNS) was 118 nM and the TGI (SF-539 CNS) was 790 nM. It also gave a GI50 (HL-60(TB) leukemia) of 38.7 nM, a TGI (HL-60(TB) leukemia) of 489 nM and a GI50 (SK-MEL-2 melanoma) of 595 nM. It also gave a GI50 (MALME-3M melanoma) of 111 nM, a TGI (MALME-3M melanoma) of over 100 µM and a GI50 (PC-3 prostate) of 131 nM. It also gave a TGI (PC-3 prostate) of over 100 µM, a GI50 (HT29 colon) of 114 nM and a TGI (HT29 colon) of 2340 nM. For the same molecule, the GI50 (CCRF-CEM leukemia) was 86.6 nM, the TGI (CCRF-CEM leukemia) was over 100 µM and the GI50 (NCI-H226 lung) was 904 nM. The TGI (NCI-H226 lung) was over 100 µM, the GI50 (A549 NSCLC) was 282 nM and the TGI (A549 NSCLC) was over 36.9 µM. It also gave a GI50 (SR leukemia) of 45.7 nM, a TGI (SR leukemia) of over 100 µM and a GI50 (MOLT-4 leukemia) of 228 nM. The TGI (MOLT-4 leukemia) was over 100 µM, the GI50 (SNB-19 CNS) was 332 nM and the TGI (SNB-19 CNS) was over 100 µM. For the same molecule, the GI50 (EKVX NSCLC) was 466 nM, the TGI (EKVX NSCLC) was over 100 µM and the GI50 (RPMI-8226 leukemia) was 319 nM. For the same molecule, the TGI (RPMI-8226 leukemia) was over 100 µM, the GI50 (SK-MEL-5 melanoma) was 172 nM and the TGI (SK-MEL-5 melanoma) was 1670 nM. The GI50 (NCI-H522 lung) was 81.5 nM, the TGI (NCI-H522 lung) was 424 nM and the GI50 (OVCAR-5 ovarian) was 513 nM. It also gave a TGI (OVCAR-5 ovarian) of over 100 µM, a GI50 (UACC-257 melanoma) of 1870 nM and a TGI (UACC-257 melanoma) of over 100 µM. For the same molecule, the GI50 (HOP-92 NSCLC) was 2590 nM, the TGI (HOP-92 NSCLC) was over 100 µM and the GI50 (RXF 393 renal) was 128 nM. For the same molecule, the TGI (RXF 393 renal) was 403 nM, the GI50 (OVCAR-4 ovarian) was 648 nM and the TGI (OVCAR-4 ovarian) was over 100 µM. For the same molecule, the GI50 (DU-145 prostate) was 172 nM, the TGI (DU-145 prostate) was 543 nM and the GI50 (SK-MEL-28 melanoma) was 3.74 µM. The TGI (SK-MEL-28 melanoma) was over 100 µM, the GI50 (U251 CNS) was 238 nM and the TGI (U251 CNS) was over 46.8 µM. For the same molecule, the GI50 (LOX IMVI melanoma) was 79.3 nM, the TGI (LOX IMVI melanoma) was over 100 µM and the GI50 (SF-268 CNS) was 310 nM. It also gave a TGI (SF-268 CNS) of over 100 µM, a GI50 (NCI-H23 lung) of 213 nM and a TGI (NCI-H23 lung) of over 100 µM. For the same molecule, the GI50 (NCI-H460 lung) was 139 nM, the TGI (NCI-H460 lung) was 711 nM and the GI50 (COLO 205 colon) was 257 nM. It also gave a TGI (COLO 205 colon) of 816 nM, a GI50 (OVCAR-8 ovarian) of 286 nM and a TGI (OVCAR-8 ovarian) of over 100 µM. For the same molecule, the GI50 (HOP-62 NSCLC) was 570 nM, the TGI (HOP-62 NSCLC) was over 100 µM and the GI50 (UACC-62 melanoma) was 179 nM. It also gave a TGI (UACC-62 melanoma) of over 100 µM, a GI50 (IGROV1 ovarian) of 237 nM and a TGI (IGROV1 ovarian) of over 100 µM. For the same molecule, the GI50 (SF-295 CNS) was 62.1 nM, the TGI (SF-295 CNS) was 439 nM and the GI50 (NCI/ADR-RES ovarian) was 56.2 nM. It also gave a TGI (NCI/ADR-RES ovarian) of 407 nM, a GI50 (T-47D breast) of 807 nM and a TGI (T-47D breast) of over 100 µM. For the same molecule, the GI50 (CAKI-1 renal) was 160 nM, the TGI (CAKI-1 renal) was over 100 µM and the GI50 (SNB-75 CNS) was 111 nM. For the same molecule, the TGI (SNB-75 CNS) was 1180 nM, the GI50 (HCT-116 colon) was 66.2 nM and the TGI (HCT-116 colon) was 1120 nM. It also gave a GI50 (MDA-MB-435) of 24.8 nM, a TGI (MDA-MB-435) of 71.8 nM and a GI50 (MDA-MB-231 breast) of 231 nM. It also gave a TGI (MDA-MB-231 breast) of 798 nM, a GI50 (KM12 colon) of 77 nM and a TGI (KM12 colon) of 1060 nM. For the same molecule, the GI50 (K-562 leukemia) was 44.6 nM, the TGI (K-562 leukemia) was over 100 µM and the GI50 (TK-10 renal) was 402 nM. The TGI (TK-10 renal) was over 100 µM, the GI50 (HCT-15 colon) was 127 nM and the TGI (HCT-15 colon) was over 100 µM. It also gave a GI50 (SK-OV-3 ovarian) of 217 nM, a TGI (SK-OV-3 ovarian) of over 100 µM and a GI50 (786-0 renal) of 192 nM. It also gave a GI50 (BT-549 breast) of 374 nM, a TGI (BT-549 breast) of over 100 µM and a GI50 (HS 578T breast) of 36.3 nM. For the same molecule, the TGI (HS 578T breast) was 307 nM.
